Series [1] has as its system quorum sensing (CV026 and KYC55). As to the kind of experiment: Quorum sensing inhibition, overall statement over the bio-reporter bacteria. The class given is cell-based. The method, boiled down: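 Compounds (20 μl of 40 mM acetonitrile stock) were spotted on TLC plates overlaid with reporter in soft agar: CV026 with 500 nM 3-oxo-C6 (purple pigment) or KYC55 with 5 nM 3-oxo-C8 and 60 μg/ml X-gal (blue pigment). After overnight incubation at 30 °C, the pigment-free inhibition zone was measured.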

The subject of another series is NF-kB. As to the kind of experiment: NF-kB-luciferase reporter gene assay in L428 cells. Note: key: +: active; −: inactive. To be noted: Table 6 summary. The class given is cell-based, human. The method, boiled down:
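L428 cells stably carrying NF-kB-luciferase reporter (5×10^5/well, triplicate) exposed 2 h to compounds or DMSO. Lysate luminescence normalized to Bradford protein and to vehicle, reported as % NF-kB activation; mean+SD, ≥3 repeats.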

A further series is described as follows: in vitro. To be noted: human, LC50. Summed up:
(§1)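 30,000 cells/well exposed to coumaperine derivatives at varying concentrations or DMSO vehicle for 48 h at 37 °C, 5% CO2, then XTT added for 2 h. Absorbance at 450 nm minus 650 nm and blank, normalized to DMSO-treated cells (100% viability); triplicate, two independent tests, mean+SD.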

Another series deals with L428 cells. The experiment in a line: in vitro. Summed up: as §1
The subject of series [2] is QS genes lasR, lasI, rhlR and rhlI. The experiment in a line: RT-qPCR of P. aeruginosa (PA01) QS genes. The class given is cell-based. To be noted: PA01 co-incubated seven hours. The method, then: FIGS. 13A-13C include vertical bar graphs showing the dose response inhibition of QS by PL-18. Bioluminescence indicator bacteria containing the P. aeruginosa reporter genes rhlRI (13A) and lasRI (13B) were used. The reporter bacteria were incubated with and range of PL-18 concentrations or DMSO, together with (+AI) or without (−AI) the proper auto-inducer. Bioluminescence was recorded at 15 min intervals for 10 hrs at 37° C. The maximum signal in each group was normalized to the inducer's bioluminescence maximum signal with 0.5% DMSO. Mean±SD, One-way ANOVA followed by Dunett's multiple comparisons test was performed (p-value ***≤0.0002). N=9 (triplicate samples in three independent experiments). (13C) RT-qPCR of P. aeruginosa (PA01) QS genes. PA01 was co-incubated with two doses of PL-18 for seven hours, lysed and total RNA was extracted and converted to cDNA followed by target genes qPCR amplification. N≥16, Mean±SD. Two-way ANOVA, 95% confidence interval.
The inhibition of rhlR-rhlI system was slightly better than the inhibition of lasR-lasI. […] The relative transcription levels of QS genes lasR, lasI, rhlR and rhlI, was determined by RT-qPCR.

The next series relates to elastase. The experiment in a line: Elastase secretion by P. aeruginosa. The class given is cell-based. To be noted: data not shown.
The subject of another series is P. aeruginosa. As to the kind of experiment: Toxicity to P. aeruginosa (CFU scoring, kinetic O.D.600nm). The class given is cell-based. To be noted: at the concentrations tested, data not shown. On the procedure: The inventors also determined the toxicity of PL-18 to P. aeruginosa. Viability was tested by scoring CFUs of PL-18 treated P. aeruginosa cultures and bacterial growth was determined by incubation with PL-18 for kinetic O.D.600nm measurements.

“Also recorded” adds a separate entry of the source.

`COc1cc(/C=C/C(=O)N2CCC=CC2=O)cc(O)c1O` [PL-18, Dihydroxy piperlongumine]: the QSI result in series [1] (Table 6 summary) is on record as “+”. In series [1] (running text), the “QSI activity overall, in words” value is listed as “moderate”. The Anti-inflammatory result in the series on NF-kB is “+”. The compound also gave a CC50 at 48 h in the series “in vitro” of 9.3 µM. The Cytotoxic entry with L428 cells was “+”. Also, the “Relative transcription levels of QS genes lasR, lasI, rhlR and rhlI” value in series [2] is listed as “strongly decreased”. The “Inhibition of elastase secretion” value in the series on elastase is “not shown to inhibit; also recorded: not found to inhibit”. In the series on P. aeruginosa, the “Effect on P. aeruginosa growth (O.D.600nm)” value was “did not affect P. aeruginosa growth” and the “Toxicity to P. aeruginosa (viability, CFUs)” value is reported as “non-toxic”.

The values above are taken from patent US20240109855A1, “ANTI-QUORUM SENSING, ANTI-BIOFILM, AND INFLAMMATION ATTENUATING COMPOUNDS, COMPOSITIONS, AND METHODS OF USING SAME” (priority 2021, published 2024).
